Results reported in ChEMBL document CHEMBL1201862, “PubChem BioAssay data set” (2004).
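Exposure lasted 48 hours, with cells grown in 96-well plates and compounds tested at five concentrations. GI50: concentration for 50% inhibition of growth.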 Active and inactive are the calls of the source. No stated cut-off is given here; in the data, active = GI50 up to about 1.1 µM and inactive = higher.

Columns and labels:
Assay in all cases: DTP human tumour cell line panel, 48 h
NCI-H226 = system: NCI-H226
SK-MEL-5 = system: SK-MEL-5
SF-539 = system: SF-539
M14 = system: M14
CAKI-1 = system: CAKI-1
HCT-15 = system: HCT-15
T47D = system: T47D
IGROV-1 = system: IGROV-1
PC-3 = system: PC-3
SK-MEL-2 = system: SK-MEL-2
SK-MEL-28 = system: SK-MEL-28
UACC-62 = system: UACC-62
RXF 393 = system: RXF 393
SW-620 = system: SW-620
MOLT-4 = system: MOLT-4
SR = system: SR
NCI-H522 = system: NCI-H522
HOP-92 = system: HOP-92
NCI-H460 = system: NCI-H460
RPMI-8226 = system: RPMI-8226
MCF7 = system: MCF7
Malme-3M = system: Malme-3M
MDA-N = system: MDA-N
HT-29 = system: HT-29
SNB-19 = system: SNB-19
SF-295 = system: SF-295
OVCAR-4 = system: OVCAR-4
NCI/ADR-RES = system: NCI/ADR-RES
BT-549 = system: BT-549
786-0 = system: 786-0
UACC-257 = system: UACC-257
HOP-62 = system: HOP-62
SF-268 = system: SF-268
SNB-75 = system: SNB-75
OVCAR-5 = system: OVCAR-5
MDA-MB-435 = system: MDA-MB-435
COLO 205 = system: COLO 205
NCI-H23 = system: NCI-H23
TK-10 = system: TK-10
A549 = system: A549
Hs-578T = system: Hs-578T
KM12 = system: KM12
SN12C = system: SN12C
OVCAR-3 = system: OVCAR-3
ACHN = system: ACHN
HCT-116 = system: HCT-116
OVCAR-8 = system: OVCAR-8
UO-31 = system: UO-31
HCC 2998 = system: HCC 2998
DU-145 = system: DU-145
SK-OV-3 = system: SK-OV-3
MDA-MB-231 = system: MDA-MB-231
LOX IMVI = system: LOX IMVI
A498 = system: A498
EKVX = system: EKVX
U-251 = system: U-251
CCRF-CEM = system: CCRF-CEM
HL-60 = system: HL-60
K562 = system: K562

CN(C)c1ccc(C2SCC(=O)N2c2nc3cc4sc(N5C(=O)CSC5c5ccc(N(C)C)cc5)nc4cc3s2)cc1 (stereo not drawn)
GI50 (NCI-H226): 7.62 µM (inactive) | GI50 (SK-MEL-5): 32 µM (inactive) | GI50 (SF-539): 51.5 µM (inactive) | GI50 (M14): 51.3 µM (inactive) | GI50 (CAKI-1): 8.49 µM (inactive) | GI50 (HCT-15): 8.87 µM | GI50 (T47D): 31.6 µM (inactive) | GI50 (IGROV-1): 29.3 µM (inactive) | GI50 (PC-3): 38.1 µM (inactive) | GI50 (SK-MEL-2): > 100 µM (inactive) | GI50 (SK-MEL-28): > 72.8 µM (inactive) | GI50 (UACC-62): > 72.3 µM (inactive) | GI50 (RXF 393): > 100 µM (inactive) | GI50 (SW-620): 8.02 µM (inactive) | GI50 (MOLT-4): 3.37 µM (inactive) | GI50 (SR): 6.62 µM (inactive) | GI50 (NCI-H522): 3.76 µM (inactive) | GI50 (HOP-92): > 60.5 µM (inactive) | GI50 (NCI-H460): 1.53 µM (inactive) | GI50 (RPMI-8226): 19.5 µM (inactive) | GI50 (MCF7): 12 µM (inactive) | GI50 (Malme-3M): > 100 µM (inactive) | GI50 (MDA-N): 45.2 µM (inactive) | GI50 (HT-29): 17 µM (inactive) | GI50 (SNB-19): 41.4 µM (inactive) | GI50 (SF-295): 46.6 µM (inactive) | GI50 (OVCAR-4): 32.9 µM (inactive) | GI50 (NCI/ADR-RES): > 23.3 µM (inactive) | GI50 (BT-549): 22.9 µM (inactive) | GI50 (786-0): > 100 µM (inactive) | GI50 (UACC-257): > 25.5 µM (inactive) | GI50 (HOP-62): 56.6 µM (inactive) | GI50 (SF-268): 75.7 µM (inactive) | GI50 (SNB-75): > 90.6 µM (inactive) | GI50 (OVCAR-5): > 94 µM (inactive) | GI50 (MDA-MB-435): 28 µM (inactive) | GI50 (COLO 205): 3.73 µM (inactive) | GI50 (NCI-H23): 11.4 µM (inactive) | GI50 (TK-10): > 100 µM (inactive) | GI50 (A549): 7.71 µM (inactive) | GI50 (Hs-578T): 47.2 µM (inactive) | GI50 (KM12): 39.5 µM (inactive) | GI50 (SN12C): > 20.5 µM (inactive) | GI50 (OVCAR-3): 48.3 µM (inactive) | GI50 (ACHN): 28.1 µM (inactive) | GI50 (HCT-116): 16 µM (inactive) | GI50 (OVCAR-8): > 70.5 µM (inactive) | GI50 (UO-31): 23.1 µM (inactive) | GI50 (HCC 2998): > 100 µM (inactive) | GI50 (DU-145): 13.2 µM (inactive) | GI50 (SK-OV-3): 85.7 µM (inactive) | GI50 (MDA-MB-231): > 51.8 µM (inactive) | GI50 (LOX IMVI): 43.9 µM (inactive) | GI50 (A498): 27.9 µM (inactive) | GI50 (EKVX): 54.1 µM (inactive) | GI50 (U-251): 30.7 µM (inactive) | GI50 (CCRF-CEM): 3.41 µM (inactive) | GI50 (HL-60): 29 µM (inactive) | GI50 (K562): 40.9 µM (inactive)

CCCN1C(=O)CCC2=C1CCc1c2ccc(Cl)c1Cl
GI50 (NCI-H226): 60.5 µM (inactive) | GI50 (SK-MEL-5): 15.4 µM (inactive) | GI50 (SF-539): 25.9 µM (inactive) | GI50 (M14): 31.9 µM (inactive) | GI50 (CAKI-1): 31.6 µM (inactive) | GI50 (HCT-15): 50.6 µM | GI50 (T47D): 36.7 µM (inactive) | GI50 (IGROV-1): 30.8 µM (inactive) | GI50 (PC-3): 27.3 µM (inactive) | GI50 (SK-MEL-2): 13.5 µM (inactive) | GI50 (SK-MEL-28): 92 µM (inactive) | GI50 (UACC-62): 0.492 µM (active) | GI50 (RXF 393): 17.9 µM (inactive) | GI50 (SW-620): 48.4 µM (inactive) | GI50 (MOLT-4): 26.2 µM (inactive) | GI50 (SR): 31.8 µM (inactive) | GI50 (NCI-H522): 23.3 µM (inactive) | GI50 (HOP-92): 21.8 µM (inactive) | GI50 (NCI-H460): 43.6 µM (inactive) | GI50 (RPMI-8226): 28.8 µM (inactive) | GI50 (MCF7): 42.1 µM (inactive) | GI50 (Malme-3M): 61.1 µM (inactive) | GI50 (MDA-N): 46 µM (inactive) | GI50 (HT-29): 34.8 µM (inactive) | GI50 (SNB-19): 26.8 µM (inactive) | GI50 (SF-295): 27 µM (inactive) | GI50 (OVCAR-4): 26.2 µM (inactive) | GI50 (NCI/ADR-RES): 33.8 µM (inactive) | GI50 (BT-549): 64.4 µM (inactive) | GI50 (786-0): 31.9 µM (inactive) | GI50 (UACC-257): 39.9 µM (inactive) | GI50 (HOP-62): 38.5 µM (inactive) | GI50 (SF-268): 27 µM (inactive) | GI50 (SNB-75): 15.2 µM (inactive) | GI50 (OVCAR-5): 8.41 µM (inactive) | GI50 (MDA-MB-435): 57.9 µM (inactive) | GI50 (COLO 205): 51.9 µM (inactive) | GI50 (NCI-H23): 29.4 µM (inactive) | GI50 (TK-10): 11.9 µM (inactive) | GI50 (A549): 27.2 µM (inactive) | GI50 (Hs-578T): 0.0472 µM (active) | GI50 (KM12): 38 µM (inactive) | GI50 (SN12C): 28.2 µM (inactive) | GI50 (OVCAR-3): 23 µM (inactive) | GI50 (ACHN): 24.3 µM (inactive) | GI50 (HCT-116): 27.7 µM (inactive) | GI50 (OVCAR-8): 23.2 µM (inactive) | GI50 (UO-31): 53 µM (inactive) | GI50 (HCC 2998): 21.3 µM (inactive) | GI50 (DU-145): 5.19 µM (inactive) | GI50 (SK-OV-3): 24.3 µM (inactive) | GI50 (MDA-MB-231): 16.8 µM (inactive) | GI50 (LOX IMVI): 25.6 µM (inactive) | GI50 (A498): 13 µM (inactive) | GI50 (EKVX): 0.0305 µM (active) | GI50 (U-251): 22.9 µM (inactive) | GI50 (CCRF-CEM): 39.9 µM (inactive) | GI50 (HL-60): 15.8 µM (inactive) | GI50 (K562): 35 µM (inactive)
